The source of these data is patent US8435978B2, “Substituted sulfonamide compounds” (Gruenenthal GmbH, priority 2006, dated 2013).

For orientation: inhibition means the drop in the measured response relative to a control, in per cent.

The target of one test is T1, human B1R receptor (Homo sapiens, UniProt P46663).
T1 construct: host or cells: CHO K1 cells (Chinese hamster ovary), stably transfected
T1 sequence (P46663 1-353): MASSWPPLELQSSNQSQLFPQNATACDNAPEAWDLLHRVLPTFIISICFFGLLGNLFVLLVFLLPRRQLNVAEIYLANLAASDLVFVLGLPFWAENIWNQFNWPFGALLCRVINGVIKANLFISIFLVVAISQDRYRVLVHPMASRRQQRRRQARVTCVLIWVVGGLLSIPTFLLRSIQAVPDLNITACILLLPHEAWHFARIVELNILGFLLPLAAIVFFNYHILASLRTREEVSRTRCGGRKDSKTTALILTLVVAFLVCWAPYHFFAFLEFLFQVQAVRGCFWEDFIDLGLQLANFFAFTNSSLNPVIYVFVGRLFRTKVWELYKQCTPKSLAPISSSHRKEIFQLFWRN
The test can be described thus: Functional study on the bradykinin receptor 1 (B1R), FLIPR Ca2+ assay, hB1R cells. Format: cell-based. Conditions: CHO-K1, test substance 10 μM, agonist Lys-Des-Arg9-bradykinin 0.5 nM, % inhibition compared with the maximum achievable inhibition, read-out: B1R Antagonism, human [10 μM] % Inhibition. The gist of the method: (§1)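 Readout: peak Fluo-4 Ca2+ fluorescence, FLIPR. Stable CHO K1 hB1R or rB1R cells; cpd 10 μM, 10 min preincubation, then agonist (hB1R: Lys-Des-Arg9-BK 0.5 nM; rB1R: Des-Arg9-BK 100 nM). Value = % inhibition relative to maximal achievable inhibition.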

The next test addresses T2, B1R receptor of the rat (Rattus norvegicus, UniProt P97583).
T2 construct: host or cells: CHO K1 cells (Chinese hamster ovary), stably transfected
T2 sequence (P97583 1-337): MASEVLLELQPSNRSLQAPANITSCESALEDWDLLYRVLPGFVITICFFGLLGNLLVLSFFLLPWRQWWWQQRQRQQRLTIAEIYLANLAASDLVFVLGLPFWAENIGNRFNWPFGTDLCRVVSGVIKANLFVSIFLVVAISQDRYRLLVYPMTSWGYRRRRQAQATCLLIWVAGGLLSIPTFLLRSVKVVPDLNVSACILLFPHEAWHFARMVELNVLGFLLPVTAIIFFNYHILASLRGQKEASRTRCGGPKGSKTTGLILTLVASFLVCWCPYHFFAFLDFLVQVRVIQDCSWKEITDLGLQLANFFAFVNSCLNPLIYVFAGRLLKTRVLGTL
The test can be described thus: Functional study on the bradykinin receptor 1 (B1R), FLIPR Ca2+ assay, rB1R cells. Format: cell-based. Conditions: CHO-K1, test substance 10 μM, agonist Des-Arg9-bradykinin 100 nM, % inhibition compared with the maximum achievable inhibition, read-out: B1R Antagonism, rat [10 μM] % Inhibition. The method in brief: as §1

As to `COc1cc(C)c(S(=O)(=O)N2CCCCC2COCC(=O)N2CCN(c3ccc(C(F)(F)F)cn3)CC2)c(C)c1` (centres unmarked) [Example 514, 2-((1-(4-methoxy-2,6-dimethylphenylsulfonyl)piperidin-2-yl)methoxy)-1-(4-(5-(trifluoromethyl)pyridin-2-yl)piperazin-1-yl)ethanone], the results for the inhibition at 10 µM at human B1R receptor and on B1R receptor of the rat were 85.2% and 99%, respectively.

On to `COc1cc(C)c(S(=O)(=O)N2CCCCC2COCC(=O)N2CCN(Cc3ccccc3F)CC2)c(C)c1` (centres unmarked) [Example 387, 1-(4-(2-fluorobenzyl)piperazin-1-yl)-2-((1-(4-methoxy-2,6-dimethylphenylsulfonyl)piperidin-2-yl)methoxy)ethanone], for which the inhibition at 10 µM was found to be 91% on human B1R receptor and 101% at B1R receptor of the rat.

For `Cc1cc(C)c(S(=O)(=O)N2Cc3ccccc3CC2COCC(=O)NCc2cccc(N3CCOCC3)c2)c(C)c1` (centres unmarked) [Example 50, N-(3-morpholin-4-yl-benzyl)-2-[2-(2,4,6-trimethyl-phenylsulfonyl)-1,2,3,4-tetrahydro-isoquinolin-3-ylmethoxy]-acetamide], the inhibition at 10 µM on human B1R receptor amounted to 65.7%; at B1R receptor of the rat, 50.3%.

In the case of `Cc1ccc(CN2CCN(C(=O)COCC3CCCCN3S(=O)(=O)c3c(Cl)cccc3Cl)CC2)cc1` (centres unmarked) [Example 408, 2-((1-(2,6-dichlorophenylsulfonyl)piperidin-2-yl)methoxy)-1-(4-(4-methylbenzyl)piperazin-1-yl)ethanone], the inhibition at 10 µM on human B1R receptor was 102%; on B1R receptor of the rat, 99.8%.

In the case of `COc1cc(C)c(S(=O)(=O)N2CCCCC2COCC(=O)N2CCC(c3ccncc3)CC2)c(C)c1` (centres unmarked) [Example 201, 2-((1-(4-methoxy-2,6-dimethylphenylsulfonyl)piperidin-2-yl)methoxy)-1-(4-(pyridin-4-yl)piperidin-1-yl)ethanone], the inhibition at 10 µM on human B1R receptor turned out to be 103%; at B1R receptor of the rat, 98.2%.

For the molecule `O=C(COCC1CCCCN1S(=O)(=O)c1c(Cl)cccc1Cl)N1CCN(Cc2ccc(Cl)cc2)CC1` (centres unmarked) [Example 407, 1-(4-(4-chlorobenzyl)piperazin-1-yl)-2-((1-(2,6-dichlorophenylsulfonyl)piperidin-2-yl)methoxy)ethanone], the inhibition at 10 µM is 102% on human B1R receptor and 99% at B1R receptor of the rat.

On to `Cc1cc(C)c(S(=O)(=O)N2Cc3ccccc3CC2COCC(=O)N2CCC(N3CCN(C)CC3)CC2)c(C)c1` (centres unmarked) [Example 292, 2-((2-(mesitylsulfonyl)-1,2,3,4-tetrahydroisoquinolin-3-yl)methoxy)-1-(4-(4-methylpiperazin-1-yl)piperidin-1-yl)ethanone], for which the inhibition at 10 µM was determined as 106% on human B1R receptor and 99.2% on B1R receptor of the rat.

As to `O=C(COCC1CCCN1S(=O)(=O)c1ccc(Cl)c(Cl)c1)N1CCN(CC2CCCCC2)CC1` (centres unmarked) [Example 54, 1-(4-cyclohexylmethyl-piperazin-1-yl)-2-[1-(3,4-dichloro-phenylsulfonyl)-pyrrolidin-2-ylmethoxy]-ethanone], the inhibition at 10 µM amounted to 63.8% at human B1R receptor and 0% on B1R receptor of the rat.

On to `COc1cc(C)c(S(=O)(=O)N2CCCCC2COCC(=O)N(CCCN(C)C)CCCN(C)C)c(C)c1` (centres unmarked) [Example 561, N,N-bis(3-(dimethylamino)propyl)-2-((1-(4-methoxy-2,6-dimethylphenylsulfonyl)piperidin-2-yl)methoxy)acetamide], for which the inhibition at 10 µM at human B1R receptor stood at 102%; on B1R receptor of the rat, 101%.

With `CN(CCC1CCC(N2CCCC2)CC1)C(=O)COCC1CCc2ccccc2N1S(=O)(=O)c1ccc(Cl)c(Cl)c1` (centres unmarked) [Example 216, 2-((1-(3,4-dichlorophenylsulfonyl)-1,2,3,4-tetrahydroquinolin-2-yl)methoxy)-N-methyl-N-(2-(4-(pyrrolidin-1-yl)cyclohexyl)ethyl)acetamide], the inhibition at 10 µM at human B1R receptor was -10.1%; at B1R receptor of the rat, 4.48%.

As for `COc1cc(C)c(S(=O)(=O)N2CCCCC2COCC(=O)NCc2cccc(N3CCOCC3)c2)c(C)c1` (centres unmarked) [Example 437, 2-((1-(4-methoxy-2,6-dimethylphenylsulfonyl)piperidin-2-yl)methoxy)-N-(3-morpholinobenzyl)acetamide], the inhibition at 10 µM at human B1R receptor was found to be 36.1%; at B1R receptor of the rat, 102%.

As for `COc1cc(C)c(S(=O)(=O)N2Cc3ccccc3CC2COCC(=O)N2CCN(CCCN(C)C)CC2)c(C)c1C` (centres unmarked) [Example 560, 1-(4-(3-(dimethylamino)propyl)piperazin-1-yl)-2-((2-(4-methoxy-2,3,6-trimethylphenylsulfonyl)-1,2,3,4-tetrahydroisoquinolin-3-yl)methoxy)ethanone], the inhibition at 10 µM on human B1R receptor is 102%; at B1R receptor of the rat it was 99.3%.

On to `O=C(COCC1CCCCN1S(=O)(=O)c1c(Cl)cc(Cl)cc1Cl)NCCN1CCCC1` (centres unmarked) [Example 459, N-(2-(pyrrolidin-1-yl)ethyl)-2-((1-(2,4,6-trichlorophenylsulfonyl)piperidin-2-yl)methoxy)acetamide], for which the inhibition at 10 µM at human B1R receptor stood at 57.1%; at B1R receptor of the rat, 102%.

As to `Cc1cc(C)c(S(=O)(=O)N2CCCCC2COCC(=O)N2CCCC2Cc2ccccn2)c(C)c1` (centres unmarked) [Example 226, 2-((1-(mesitylsulfonyl)piperidin-2-yl)methoxy)-1-(2-(pyridin-2-ylmethyl)pyrrolidin-1-yl)ethanone], the values for the inhibition at 10 µM at human B1R receptor and on B1R receptor of the rat were 76.4% and 96.9%, respectively.

As to `COc1cc(C)c(S(=O)(=O)N2CCCC2COCC(=O)NCCCN2CCCCC2)c(C)c1` (centres unmarked) [Example 522, 2-((1-(4-methoxy-2,6-dimethylphenylsulfonyl)pyrrolidin-2-yl)methoxy)-N-(3-(piperidin-1-yl)propyl)acetamide], the values for the inhibition at 10 µM on human B1R receptor and at B1R receptor of the rat were 54.2% and 98.7%, respectively.

Consider `Cc1cccc(N(Cc2ccccc2)C(=O)COCC2CCCCN2S(=O)(=O)c2cc(Cl)sc2Cl)n1` (centres unmarked) [Example 515, N-benzyl-2-((1-(2,5-dichlorothiophen-3-ylsulfonyl)piperidin-2-yl)methoxy)-N-(6-methylpyridin-2-yl)acetamide], for which the inhibition at 10 µM at human B1R receptor is 30.9%; on B1R receptor of the rat, 100%.

With `Cc1nn(C)c(Cl)c1S(=O)(=O)N1CCCCC1COCC(=O)N1CCN(C2CCN(C)CC2)CC1` (centres unmarked) [Example 128, 2-((1-(5-chloro-1,3-dimethyl-1H-pyrazol-4-ylsulfonyl)piperidin-2-yl)methoxy)-1-(4-(1-methylpiperidin-4-yl)piperazin-1-yl)ethanone], the inhibition at 10 µM at human B1R receptor was found to be 90.8%; on B1R receptor of the rat, 94.5%.

For the molecule `O=C(COCC1CCCCN1S(=O)(=O)c1c(Cl)cccc1Cl)N1CCN(c2ccncc2)CC1` (centres unmarked) [Example 283, 2-((1-(2,6-dichlorophenylsulfonyl)piperidin-2-yl)methoxy)-1-(4-(pyridin-4-yl)piperazin-1-yl)ethanone], the inhibition at 10 µM turned out to be 103% at human B1R receptor and 92.9% at B1R receptor of the rat.

Turning to `Cc1cccc(CC2CCCCN2C(=O)COCC2CCCCN2S(=O)(=O)c2c(Cl)cccc2Cl)n1` (centres unmarked) [Example 284, 2-((1-(2,6-dichlorophenylsulfonyl)piperidin-2-yl)methoxy)-1-(2-((6-methylpyridin-2-yl)methyl)piperidin-1-yl)ethanone], the inhibition at 10 µM at human B1R receptor amounted to 103%; on B1R receptor of the rat, 93.5%.
